We go through four molecules from PMC4490944 (Journal of immunology (Baltimore, Md. : 1950), 2015).

The subject of one data set is MHC II. Conditions: cited from earlier work.
Data set [1] concerns the target T1, HLA-DR1 (DR1) (DRA*0101/DRB1*010101) (Homo sapiens, UniProt P01903+P01911, A100R/D57E/F55L/F60I/F76Y/I96L/L162R/M171V/P40L/Q125E/R42F/V115G/Y59C). The data set is described as follows: MHC II stabilization assay. The note with it: 1 μM DR1-W1A with 1 μM DM, or 1 μM DM and 50 μM W1A, 37 °C 1 hour, pH 5.5, Superdex200; at least four independent experiments.
In data set [2] the target is T1, HLA-DR1 (DR1) (DRA*0101/DRB1*010101). Briefly: Numerical modeling. The data set is classed as binding. Conditions: best fit value, Scheme V; DM-MHC resolves into inactive MHC II in the absence of peptides; kept the same for HA and CLIP; 0.4 μM DR1, 0.4 μM DM.
Data set [3] in a line: Peptide occupancy, quantitative amino acid analysis of acid-eluted material. Conditions: control DM sample.
Data set [4] has as its target DM-MHC II intermediate (complex of HLA-DM with active peptide-free DR1) (human) (UniProt P28067). The data set is described as follows: fluorescence polarisation.

No end group written: not given here. Alexa 488 = Alexa-488 fluorophore (from tetrafluorophenyl ester) on the Lys side-chain amine

Ac-GSDARFLRGYHQYA [W1A]: the “susceptibility to DM-mediated peptide release” value with MHC II (DR1-bound) is given as “extremely susceptible to DM-mediated peptide release”. In addition, in data set [1], the “inhibition of aggregation of DR1 loaded with weakly binding peptide W1A” value is “Excess of peptides but not DM could inhibit the aggregation of MHC II”.
In turn, Ac-VSKMRMATPLLMQ [CLIP] came in with a k5 in data set [2] of 0.36 min⁻¹. In addition, the “intrinsic and DM-catalyzed dissociation half-life” value in the data set on MHC II (as previously reported) is listed as ~ 5 hours.
As to “DM: soluble extracellular domains of recombinant DM expressed in Drosophila S2 cells”, the “amino acid content of acid-eluted material” value in data set [3] was 3.46 nmol amino acid per 50 nmol protein.
Turning to Ac-VSK(Alexa 488)MRMATPLLMQ [Alexa488-labeled CLIP peptide (Ac-…)], in data set [4], the k6 (another combination that gives the same fit) was 47500 M⁻¹ s⁻¹, the k6 (peptide binds the intermediate DM-MHC to give DM-MHCpep') came out at 86800 M⁻¹ s⁻¹ and the k-6 (peptide leaves DM-MHCpep') was 0.022 min⁻¹.
